System: subjects with moderate-to-severe plaque psoriasis
Assay: Safety, adverse events, Example 2 through Week 56
Type: in vivo, human
Text: The LTE safety analysis was based on randomized participants in Example who entered the present long-term extension study and received at least one dose of study intervention (including a partial dose) during the study period.

[1] = 25 mg QD, LTE Safety analysis set
[2] = 50 mg QD, Week 16 through Week 56
[3] = 50 mg QD, LTE Safety analysis set

CC(=O)NCCCC[C@@H]1NC(=O)[C@H](Cc2c[nH]c3c(C)cccc23)NC(=O)[C@H]([C@@H](C)O)NC(=O)[C@H](CC(N)=O)NC(=O)[C@@H](NC(C)=O)C(C)(C)SSC(C)(C)[C@@H](C(=O)N[C@@H](Cc2ccc(OCCN)cc2)C(=O)N[C@@H](Cc2ccc3ccccc3c2)C(=O)NC2(C(=O)N[C@@H](CCC(=O)O)C(=O)N[C@@H](CC(N)=O)C(=O)N[C@@H](Cc3cccnc3)C(=O)N(C)CC(N)=O)CCOCC2)NC1=O [IL-23 receptor antagonist peptide, Ac-[Pen]*-N-T-[W(7-Me)]-[Lys(Ac)]-[Pen]*-Phe[4-(2-aminoethoxy)]-[2-Nal]-[THP]-E-N-[3-Pal]-Sarc-NH2 (*[Pen]-[Pen]* formdisulfidebond)]
1: Thrombocytopenia: number of subjects (25 mg QD, through Week 56) | Vertigo: number of subjects (25 mg QD, through Week 56) | Number of subjects with treatment-emergent AE: Immune system disorders [2] | Number of subjects with treatment-emergent AE: Seasonal allergy [2]
(2.3%): Thrombocytopenia: % of subjects (25 mg QD, through Week 56) | Vertigo: % of subjects (25 mg QD, through Week 56)
0: Subjects with treatment-emergent serious AE: Neoplasms benign, malignant and unspecified (incl cysts and polyps) (25 mg QD, through Week 56) | Subjects with treatment-emergent serious AE: Nervous system disorders (25 mg QD, through Week 56) | Subjects with treatment-emergent serious AE: Non-cardiac chest pain (25 mg QD, through Week 56) | Subjects with treatment-emergent serious AE: Psychiatric disorders (25 mg QD, through Week 56) | Subjects with treatment-emergent serious AE: Respiratory, thoracic and mediastinal disorders (25 mg QD, through Week 56) | Subjects with treatment-emergent serious AE: Suicide attempt (25 mg QD, through Week 56) | Subjects with treatment-emergent serious AE: Tonsillar hypertrophy (25 mg QD, through Week 56) | Subjects with treatment-emergent serious AE: Uterine leiomyoma (25 mg QD, through Week 56) | Subjects with treatment-emergent serious AE: Ventricular dysfunction (25 mg QD, through Week 56) | Suicide attempt: number of subjects (25 mg QD, through Week 56) | Sunburn: number of subjects (25 mg QD, through Week 56) | Thrombocytosis: number of subjects (25 mg QD, through Week 56) | Tonsillar hypertrophy: number of subjects (25 mg QD, through Week 56) | Tooth fracture: number of subjects (25 mg QD, through Week 56) | Type 2 diabetes mellitus: number of subjects (25 mg QD, through Week 56) | Urinary tract disorder: number of subjects (25 mg QD, through Week 56) | Uterine leiomyoma: number of subjects (25 mg QD, through Week 56) | Vascular disorders: number of subjects (25 mg QD, through Week 56) | Ventricular dysfunction: number of subjects (25 mg QD, through Week 56) | Vitamin D deficiency: number of subjects (25 mg QD, through Week 56) | Subjects with 1 or more Serious Infections and infestations [1] | Subjects with 1 or more Serious adverse events [1] | Subjects with adverse event: Arthralgia [1] | Subjects with adverse event: Hypertension [1] | Subjects with adverse event: Influenza [1] | Subjects with adverse event: Sinusitis [1] | Subjects with adverse event: Vomiting [1] | Subjects with serious adverse event: Cerebrovascular accident [1] | Subjects with serious adverse event: Coronary artery disease [1] | Subjects with serious adverse event: Diverticulitis [1] | Subjects with serious adverse event: Foot deformity [1] | Subjects with serious adverse event: Intervertebral disc protrusion [1] | Subjects with serious adverse event: Ligament injury [1] | Subjects with serious adverse event: Non-cardiac chest pain [1] | Subjects with serious adverse event: Tonsillar hypertrophy [1] | Subjects with serious adverse event: Uterine leiomyoma [1] | Subjects with serious adverse event: Ventricular dysfunction [1] | Subjects with 1 or more treatment-emergent serious adverse events (25 mg QD, Week 16-56) | Subjects with AE leading to discontinuation: Asthenia (25 mg QD, Week 16-56) | Subjects with AE leading to discontinuation: Chills (25 mg QD, Week 16-56) | Subjects with AE leading to discontinuation: Ear and labyrinth disorders (25 mg QD, Week 16-56) | Subjects with AE leading to discontinuation: Gastrointestinal disorders (25 mg QD, Week 16-56) | Subjects with AE leading to discontinuation: General disorders and administration site conditions (25 mg QD, Week 16-56) | Subjects with AE leading to discontinuation: Headache (25 mg QD, Week 16-56) | Subjects with AE leading to discontinuation: Insomnia (25 mg QD, Week 16-56) | Subjects with AE leading to discontinuation: Nervous system disorders (25 mg QD, Week 16-56) | Subjects with AE leading to discontinuation: Proctalgia (25 mg QD, Week 16-56) | Subjects with AE leading to discontinuation: Psoriasis (25 mg QD, Week 16-56) | Subjects with AE leading to discontinuation: Psychiatric disorders (25 mg QD, Week 16-56) | Subjects with AE leading to discontinuation: Skin and subcutaneous tissue disorders (25 mg QD, Week 16-56) | Subjects with AE leading to discontinuation: Vertigo (25 mg QD, Week 16-56) | Subjects with AE leading to discontinuation: Vomiting (25 mg QD, Week 16-56) | Subjects with COVID-19 associated AE of interest: SARS-CoV-2 test positive (25 mg QD, Week 16-56) | Subjects with treatment-emergent AE: Arthralgia (25 mg QD, Week 16-56) | Subjects with treatment-emergent AE: Hypertension (25 mg QD, Week 16-56) | Subjects with treatment-emergent AE: Influenza (25 mg QD, Week 16-56) | Subjects with treatment-emergent AE: Musculoskeletal and connective tissue disorders (25 mg QD, Week 16-56) | Subjects with treatment-emergent AE: Sinusitis (25 mg QD, Week 16-56) | Subjects with treatment-emergent AE: Vascular disorders (25 mg QD, Week 16-56) | Subjects with treatment-emergent AE: Vomiting (25 mg QD, Week 16-56) | Subjects with treatment-emergent serious AE: Cardiac disorders (25 mg QD, Week 16-56) | Subjects with treatment-emergent serious AE: Cerebrovascular accident (25 mg QD, Week 16-56) | Subjects with treatment-emergent serious AE: Coronary artery disease (25 mg QD, Week 16-56) | Subjects with treatment-emergent serious AE: Diverticulitis (25 mg QD, Week 16-56) | Subjects with treatment-emergent serious AE: Foot deformity (25 mg QD, Week 16-56) | Subjects with treatment-emergent serious AE: General disorders and administration site conditions (25 mg QD, Week 16-56) | Subjects with treatment-emergent serious AE: Infections and infestations (25 mg QD, Week 16-56) | Subjects with treatment-emergent serious AE: Injury, poisoning and procedural complications (25 mg QD, Week 16-56) | Subjects with treatment-emergent serious AE: Intervertebral disc protrusion (25 mg QD, Week 16-56) | Subjects with treatment-emergent serious AE: Ligament injury (25 mg QD, Week 16-56) | Subjects with treatment-emergent serious AE: Musculoskeletal and connective tissue disorders (25 mg QD, Week 16-56) | Subjects with treatment-emergent serious AE: Neoplasms benign, malignant and unspecified (incl cysts and polyps) (25 mg QD, Week 16-56) | Subjects with treatment-emergent serious AE: Nervous system disorders (25 mg QD, Week 16-56) | Subjects with treatment-emergent serious AE: Non-cardiac chest pain (25 mg QD, Week 16-56) | Subjects with treatment-emergent serious AE: Respiratory, thoracic and mediastinal disorders (25 mg QD, Week 16-56) | Subjects with treatment-emergent serious AE: Tonsillar hypertrophy (25 mg QD, Week 16-56) | Subjects with treatment-emergent serious AE: Uterine leiomyoma (25 mg QD, Week 16-56) | Subjects with treatment-emergent serious AE: Ventricular dysfunction (25 mg QD, Week 16-56) | Number of subjects with treatment-emergent AE: Cholelithiasis [2] | Number of subjects with treatment-emergent AE: Ear and labyrinth disorders [2] | Number of subjects with treatment-emergent AE: Endocrine disorders [2] | Number of subjects with treatment-emergent AE: Eye disorders [2] | Number of subjects with treatment-emergent AE: Eyelid skin dryness [2] | Number of subjects with treatment-emergent AE: Goiter [2] | Number of subjects with treatment-emergent AE: Hepatobiliary disorders [2] | Number of subjects with treatment-emergent AE: Hypertransaminasemia [2] | Number of subjects with treatment-emergent AE: Insomnia [2] | Number of subjects with treatment-emergent AE: Ocular cyst [2] | Number of subjects with treatment-emergent AE: Psychiatric disorders [2] | Number of subjects with treatment-emergent AE: Retinal vein occlusion [2] | Number of subjects with treatment-emergent AE: Vertigo [2] | Subjects who discontinued study agent because of 1 or more adverse events [3] | Subjects with 1 or more Serious Infections and infestations [3] | Subjects with adverse event: Headache [3] | Subjects with adverse event: Meniscus injury [3] | Subjects with adverse event: Vomiting [3] | Subjects with serious adverse event: Cerebrovascular accident [3] | Subjects with serious adverse event: Diverticulitis [3] | Subjects with serious adverse event: Intervertebral disc protrusion [3] | Subjects with serious adverse event: Ligament injury [3] | Subjects with serious adverse event: Tonsillar hypertrophy [3] | Subjects with serious adverse event: Uterine leiomyoma [3] | Subjects with serious adverse event: Ventricular dysfunction [3] | Subjects with 1 or more treatment-emergent adverse events leading to discontinuation of study agent (50 mg QD, Week 16-56) | Subjects with AE leading to discontinuation: Alanine aminotransferase increased (50 mg QD, Week 16-56) | Subjects with AE leading to discontinuation: Aspartate aminotransferase increased (50 mg QD, Week 16-56) | Subjects with AE leading to discontinuation: Asthenia (50 mg QD, Week 16-56) | Subjects with AE leading to discontinuation: Chills (50 mg QD, Week 16-56) | Subjects with AE leading to discontinuation: Ear and labyrinth disorders (50 mg QD, Week 16-56) | Subjects with AE leading to discontinuation: Gamma-glutamyltransferase increased (50 mg QD, Week 16-56) | Subjects with AE leading to discontinuation: Gastrointestinal disorders (50 mg QD, Week 16-56) | Subjects with AE leading to discontinuation: General disorders and administration site conditions (50 mg QD, Week 16-56) | Subjects with AE leading to discontinuation: Headache (50 mg QD, Week 16-56)
(2.6%): Subjects with treatment-emergent AE: Immune system disorders (%) [2] | Subjects with treatment-emergent AE: Seasonal allergy (%) [2]
